Source: ChEMBL document CHEMBL3632587, “Discovery of a Specific Inhibitor of Pyomelanin Synthesis in Legionella pneumophila” (J Med Chem, 2015)
“And” between values parts separate entries of the source, which are not always exact repeats. Equal entries are not always repeated. The source made the active and inactive calls. No cut-off for these calls is given here.

Tests used:
[1] = test system: Legionella pneumophila; experiment: Inhibition of Legionella pneumophila recombinant PAH assessed as residual activity by […] assay using 1 mM L-Phe as substrate and 200 uM BH4 as cofactor
[2] = test system: Legionella pneumophila; experiment: Inhibition of PAH in Legionella pneumophila 130b lysate assessed as residual activity at 10 uM by direct detect spectrometer
[3] = test system: Legionella pneumophila; experiment: Antibacterial activity against Legionella pneumophila 130b assessed as bacterial growth at 0.1 to 40 uM after 24 hrs by spectrometer; assay type: functional, organism-based
[4] = Uncompetitive inhibition of Legionella pneumophila recombinant PAH for free enzyme by […] assay using L-Phe as substrate
[5] = Non-competitive inhibition of Legionella pneumophila recombinant PAH for free enzyme by […] assay using BH4 as cofactor
[6] = Uncompetitive inhibition of Legionella pneumophila recombinant PAH for enzyme-substrate complex by […] assay using L-Phe as substrate
[7] = Non-competitive inhibition of Legionella pneumophila recombinant PAH for enzyme-substrate complex by […] assay using BH4 as cofactor
[8] = test system: Legionella pneumophila; experiment: Antibacterial activity against Legionella pneumophila 130b assessed as bacterial growth at 20 uM after 24 hrs by spectrometer; assay type: functional, organism-based
[9] = test system: Escherichia coli; experiment: Antibacterial activity against Escherichia coli XL-10 Gold at <= 100 uM after 21 hrs; assay type: functional, organism-based
[10] = Mixed inhibition of Legionella pneumophila recombinant PAH for enzyme-substrate complex by […] assay method using L-Phe as substrate
[11] = test system: Escherichia coli; experiment: Antibacterial activity against Escherichia coli XL-10 Gold assessed as slower growth rate at > 40 uM after 21 hrs; assay type: functional, organism-based
[12] = test system: Legionella pneumophila; experiment: Antibacterial activity against Legionella pneumophila 130b assessed as bacterial growth at <= 10 uM after 24 hrs by spectrometer; assay type: functional, organism-based
[13] = Mixed inhibition of Legionella pneumophila recombinant PAH for free enzyme by […] assay using L-Phe as substrate
[14] = biological target: T1, Phenylalanine-4-hydroxylase (Homo sapiens) (UniProt P00439); experiment: Inhibition of human PAH by […] assay using L-Phe as substrate and 75 uM BH4 as cofactor
T1 sequence (whole entry): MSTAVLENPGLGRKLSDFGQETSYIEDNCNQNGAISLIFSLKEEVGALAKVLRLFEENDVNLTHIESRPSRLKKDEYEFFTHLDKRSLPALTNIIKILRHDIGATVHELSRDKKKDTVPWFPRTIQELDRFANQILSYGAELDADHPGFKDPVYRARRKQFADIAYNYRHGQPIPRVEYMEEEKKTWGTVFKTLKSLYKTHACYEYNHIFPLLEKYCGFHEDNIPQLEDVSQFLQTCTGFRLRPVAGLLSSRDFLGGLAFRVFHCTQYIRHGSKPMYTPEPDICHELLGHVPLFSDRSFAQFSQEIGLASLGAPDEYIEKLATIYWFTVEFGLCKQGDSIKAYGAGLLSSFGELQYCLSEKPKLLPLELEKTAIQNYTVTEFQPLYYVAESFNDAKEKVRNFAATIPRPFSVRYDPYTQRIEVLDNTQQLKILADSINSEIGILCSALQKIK

[15] = test system: Legionella pneumophila; experiment: Antibacterial activity against Legionella pneumophila 130b assessed as bacterial growth at 40 uM after 24 hrs by spectrometer; assay type: functional, organism-based
[16] = Binding affinity to Legionella pneumophila recombinant PAH by DSF assay

CC(C)(C)c1ccc(C2C(C(=O)c3cccs3)=C(O)C(=O)N2c2nncs2)cc1 (configuration not stated)
Activity [1]: 4.2%

O=C(O)c1cc([N+](=O)[O-])cc2c1-c1ccc([N+](=O)[O-])cc1/C2=N/O
Activity [2]: 39% | Activity [3]: Active | Ki [4]: 20000 nM | Ki [5]: 1000 nM | Ki [6]: 370 nM | Ki [7]: 1000 nM | Activity [1]: 0.1%

CC1(C)CC(=O)C2=C(C1)NC1=C(C(=O)CC(C)(C)C1)C2c1cnc[nH]1
Activity [1]: 3.2%

Cc1nccn1C1c2ccccc2CSc2sccc21 (configuration not stated)
Activity [1]: 2.2%

c1ccc(-c2cc(N3CCCCC3)c3ccccc3n2)nc1
Activity [1]: 3.1%

O=C(C1=C(O)C(=O)N(c2nncs2)C1c1ccc(Cl)cc1)c1cccs1 (configuration not stated)
Activity [1]: 2.23%

O=C(C1=C(O)C(=O)N(Cc2ccco2)C1c1ccc(Oc2ccccc2)cc1)c1cccs1 (configuration not stated)
Activity [1]: 1.53%

O=c1cc(CO)oc(C(Nc2nccs2)c2ccc(F)cc2)c1O (configuration not stated)
Activity [1]: 0.1%

c1ccc2c(c1)CSc1ccccc1C2n1ccnc1 (configuration not stated)
Activity [1]: 1.6%

S=C(NNC(=S)Nc1ccccc1)Nc1ccccc1
Activity [1]: 1.9%

CN1CCN(c2cc(-c3ccccn3)nc3ccccc23)CC1
Activity [1]: 2.6%

c1ccc2c(c1)CSc1sccc1C2n1ccnc1 (configuration not stated)
Activity [8]: Active | Activity [2]: 36% | Activity [9]: inactive | Ki [10]: 4100 nM | Activity [11]: Active | Activity [12]: inactive | Ki [13]: 2200 nM | inhibition [14]: Active | Activity [15]: Active | Ki [5]: 2000 nM | Ki [7]: 1700 nM | Kd [16]: 1100 nM | Activity [1]: 0.38%

c1ccc(-c2cc(N3CCOCC3)c3ccccc3n2)nc1
Activity [1]: 4.9% and 2.6%

Oc1cc(C(F)(F)F)nn1-c1nc2ccccc2s1
Activity [1]: 1.4%
